Experimental data as given in US20110100079A1, “METHOD FOR IMPARTING STRESS TOLERANCE TO PLANT” (priority 2007, published 2011).

Tests used:
Format in all cases: in vivo
“Momotaro” tomato [1] = test: Example 1 salt stress tolerance imparting test (tomato, hydroponic, Otsuka 1/2A + NaCl); conditions: NaCl 3510 ppm, leaf, 2 weeks
Method: (1) Salt stress-free test conditions: NaCl concentration (water potential by Nan): 0 ppm (0 MPa). Other cultivation conditions were as the same as the conditions of the drying stress test.
When the leaves in the 2-leaf stage fully unfolded, the soil on the tomato roots was carefully washed away with running water, and a test was performed.
Method of Salt Stress Tolerance Imparting Test
The environmental conditions in a climatic chamber were controlled so as to have a temperature of 23° C., an illuminance by a fluorescent light of 5000 Lux, and a daily light-dark cycle of a 16-hour light period and an 8-hour dark period. […] A treatment solution containing a compound of Table 1 in a specific concentration (the remainder was water) was prepared and sprayed onto the leaves or applied to the underground portion. In addition, a control plot to which no NaCl was added, not imposing a salt stress (this is a control plot for plant body weight 2 for Formula (ii) and is a stress-free control plot) and a control plot to which NaCl was added in various concentrations, imposing a salt stress, and to which the treatment solution was not applied (this is a control plot for plant body weight 1 for Formula (ii) and is a control plot including a salt stress) were prepared as controls. Ten specimens were prepared for each of the test plot and the control plots, and a plant stress level and an extent of imparting plant stress tolerance were calculated according to Formulas (II) above using as a fresh plant body weight the average of the fresh plant body weights of each specimen 2 weeks after the beginning of the test.

“Momotaro” tomato [2] = test: Example 2 temperature stress tolerance imparting test (tomato); conditions: leaf, 2 weeks
Method: Other cultivation conditions were the same as the conditions of the temperature stress test. […] (2) Solution culture medium: […] Method of Temperature Stress Tolerance Imparting Test The temperature in a climatic chamber was controlled so as to be 10, 15, or 32° C. The environmental conditions were controlled so as to have an illuminance by a fluorescent light of 5000 Lux and a daily light-dark cycle of a 16-hour light period and a 8-hour dark period. In this test, a temperature of 23° C. at which the optimum growth was observed was regarded as a reference temperature (temperature stress-free test condition), and a stress was imposed by applying a temperature higher or lower than the reference temperature. A tomato as prepared above was planted in a 250 ml polyethylene bottle filled with the solution culture medium (½ Otsuka A formulation). A treatment solution as presented in Table 1 was sprayed onto the leaves or applied to the underground portion. […] Ten specimens were prepared for each of the test plot and the control plots, and a plant stress level and an extent of imparting plant stress tolerance were calculated according to Formula (ii) and (iii) above using as a fresh plant body weight the average of the fresh plant body weights of each specimen 2 weeks after the beginning of the test.

tomato = test: Example 7 drying stress test (tomato), soil culture; conditions: 23° C., 100 ppm, 2 weeks; for Fresh weight, relative value (untreated plot = 100), Comparison 1: stress-free: tomato soil culture, EC 1, pF 1.7, two-leaf stage; for Fresh weight, relative value (untreated plot = 100), Test 1 / Fresh weight, relative value (untreated plot = 100), Test 4 / Fresh weight, relative value (untreated plot = 100), Test 2 / Fresh weight, relative value (untreated plot = 100), Test 3: tomato soil culture; for Fresh weight, relative value (untreated plot = 100), Test 1: EC 1, pF 2.8, two-leaf stage; for Fresh weight, relative value (untreated plot = 100), Test 4: EC 1, pF 3.5, five-leaf stage; for Fresh weight, relative value (untreated plot = 100), Test 2: EC 1, pF 3.5, two-leaf stage; for Fresh weight, relative value (untreated plot = 100), Test 3: EC 1, pF 4.1, two-leaf stage
Method: (§1) The environmental conditions in a climatic chamber were controlled so as to have a temperature of 23° C., an illuminance by a fluorescent light of 5000 Lux, and a daily light-dark cycle of a 16-hour light period and an 8-hour dark period. Tomatoes as prepared above were transplanted in size-3 (9 cm) pots. During the test period, the pF value was controlled by adding a suitable amount of tap water once a day so as to attain a specific drying stress value. A treatment solution containing a compound of Table 1 in a specific concentration (the remainder was water) was prepared and sprayed onto the leaves or applied to the underground portions. […] A comparative example was constructed to reflect the drying stress-free optimum cultivation conditions to investigate the plant energizing ability. […] Moreover, when the products of the present invention and the comparative products were compared, the stress tolerance imparting ability of the products of the present invention was higher in respective drying stress conditions.

potato = test: Example 9 drying stress test (potato), soil culture; conditions: 23° C., 100 ppm, 2 weeks; for Fresh weight, relative value (untreated plot = 100), Test 1 / Fresh weight, relative value (untreated plot = 100), Test 4 / Fresh weight, relative value (untreated plot = 100), Test 2 / Fresh weight, relative value (untreated plot = 100), Test 3: potato soil culture; for Fresh weight, relative value (untreated plot = 100), Test 1: EC 1, pF 2.8, two-leaf stage; for Fresh weight, relative value (untreated plot = 100), Test 4: EC 1, pF 3.5, five-leaf stage; for Fresh weight, relative value (untreated plot = 100), Test 2: EC 1, pF 3.5, two-leaf stage; for Fresh weight, relative value (untreated plot = 100), Test 3: EC 1, pF 4.1, two-leaf stage; for Fresh weight, relative value (untreated plot = 100), Comparison 1: stress-free: potato soil culture, EC 1, pF 1.7, two-leaf stage
Method: as §1, with “period. Potatoes” for “period. Tomatoes”, “in size-5 (15” for “in size-3 (9”, “Table 5” for “Table 1”

Row | Molecule | Extent of imparting plant stress tolerance (“Momotaro” tomato [1]; 100 ppm) | Extent of imparting plant stress tolerance (“Momotaro” tomato [2]; 32° C., 100 ppm) | Fresh weight, relative value (untreated plot = 100), Test 1 (potato; leaf) | Fresh weight, relative value (untreated plot = 100), Test 4 (potato; leaf) | Fresh weight, relative value (untreated plot = 100), Test 2 (potato; leaf) | Fresh weight, relative value (untreated plot = 100), Test 3 (potato; leaf) | Fresh weight, relative value (untreated plot = 100), Comparison 1 (potato; leaf) | also measured
1 | POE (20) sorbitan monolauric acid ester [Product of present invention 12] | 116% | 117% | 128 | 145 | 143 | 129 | 101 | Extent of imparting plant stress tolerance (“Momotaro” tomato [1]; 200 ppm): 120%; Extent of imparting plant stress tolerance (“Momotaro” tomato [2]; 32° C., 200 ppm): 121%; Fresh weight, relative value (untreated plot = 100), Comparison 1 (tomato; leaf): 101; Fresh weight, relative value (untreated plot = 100), Test 1 (tomato; leaf): 130; Fresh weight, relative value (untreated plot = 100), Test 4 (tomato; leaf): 148; Fresh weight, relative value (untreated plot = 100), Test 2 (tomato; leaf): 162; Fresh weight, relative value (untreated plot = 100), Test 3 (tomato; leaf): 135
2 | Sucrose fatty acid ester (C16, HLB = 15) [Product of present invention 21] | 114% | 116% | – | – | – | – | – | –
3 | OC[C@H]1O[C@H](OC[C@H]2O[C@H](O[C@]3(CO)O[C@H](CO)[C@@H](O)[C@@H]3O)[C@H](O)[C@@H](O)[C@@H]2O)[C@H](O)[C@@H](O)[C@H]1O [Comparative product 4, Raffinose, reference compound] | – | 103% | 103 | 101 | 103 | 103 | 102 | Fresh weight, relative value (untreated plot = 100), Comparison 1 (tomato; leaf): 102; Fresh weight, relative value (untreated plot = 100), Test 1 (tomato; leaf): 103; Fresh weight, relative value (untreated plot = 100), Test 4 (tomato; leaf): 101; Fresh weight, relative value (untreated plot = 100), Test 2 (tomato; leaf): 103; Fresh weight, relative value (untreated plot = 100), Test 3 (tomato; leaf): 103
4 | POE (20) sorbitan monopalmitic acid ester [Product of present invention 13] | 117% | 116% | – | – | – | – | – | –
5 | POE (20) sorbitan monostearic acid ester [Product of present invention 14] | 116% | 118% | – | – | – | – | – | –
6 | Alkyl (C12-14) polyglycoside [Product of present invention 16] | 115% | 116% | 120 | 132 | 140 | 120 | 101 | –
7 | POE (6) sorbitan monooleic acid ester [Product of present invention 10] | 113% | 114% | – | – | – | – | – | –
8 | Sucrose fatty acid ester (C18, HLB = 9) [Product of present invention 18] | 112% | 113% | – | – | – | – | – | –
9 | Sorbitan monooleic acid ester [Product of present invention 11] | 112% | 113% | – | – | – | – | – | –
10 | Sucrose fatty acid ester (C18, HLB = 11) [Product of present invention 19] | 113% | 114% | – | – | – | – | – | –
11 | Sucrose fatty acid ester (C18:1, HLB = 15) [Product of present invention 22] | – | 115% | – | – | – | – | – | Extent of imparting plant stress tolerance (“Momotaro” tomato [1]; 200 ppm): 112%; Extent of imparting plant stress tolerance (“Momotaro” tomato [2]; 32° C., 200 ppm): 113%
12 | O=C(O)[C@@H]1CCCN1 [Comparative product 2, Proline, reference compound] | – | 102% | 102 | 101 | 102 | 101 | 101 | Extent of imparting plant stress tolerance (“Momotaro” tomato [2]; 10° C., 100 ppm): 102%; Extent of imparting plant stress tolerance (“Momotaro” tomato [2]; 15° C., 100 ppm): 102%; Fresh weight, relative value (untreated plot = 100), Comparison 1 (tomato; leaf): 101; Fresh weight, relative value (untreated plot = 100), Comparison 1 (tomato; underground portion): 102; Fresh weight, relative value (untreated plot = 100), Test 1 (tomato; leaf): 102; Fresh weight, relative value (untreated plot = 100), Test 1 (tomato; underground portion): 102; Fresh weight, relative value (untreated plot = 100), Test 4 (tomato; leaf): 101; Fresh weight, relative value (untreated plot = 100), Test 4 (tomato; underground portion): 100; Fresh weight, relative value (untreated plot = 100), Test 2 (tomato; leaf): 102; Fresh weight, relative value (untreated plot = 100), Test 2 (tomato; underground portion): 103; Fresh weight, relative value (untreated plot = 100), Test 3 (tomato; leaf): 101; Fresh weight, relative value (untreated plot = 100), Test 3 (tomato; underground portion): 101; Fresh weight, relative value (untreated plot = 100), Test 1 (potato; underground portion): 102; Fresh weight, relative value (untreated plot = 100), Test 4 (potato; underground portion): 100; Fresh weight, relative value (untreated plot = 100), Test 2 (potato; underground portion): 102; Fresh weight, relative value (untreated plot = 100), Test 3 (potato; underground portion): 101; Fresh weight, relative value (untreated plot = 100), Comparison 1 (potato; underground portion): 102
